{"source": "patent US20030022251A1", "about": "“Gamma-secretase in vitro screening assay” (Boehringer Ingelheim Pharma KG, priority 2001, published 2003)", "key": {"γ-secretase [1]": {"biological_target": "T1, γ-secretase (Homo sapiens, UniProt P49768)", "T1 construct": "HEK 293 cells stably transfected with swAPP were treated with the indicated concentrations of DAPT for 4 h; endogenous in cells; host or cells: HEK 293 cells stably transfected with swAPP695 (only the substrate is transfected; the γ-secretase is the cells' own)", "assay": "Analysis of CTFγ and βAPP CTFs in membrane fractions of inhibitor-treated HEK 293 cells stably transfected with swAPP (immunoprecipitation/immunoblotting with antibody 6687)", "format": "cell-based", "details": "increasing concentrations of DAPT for 4 h", "protocol": "FIG. 1: Identification of in vivo produced CTFγ in human cells and mouse brain according to Example 1: (A) Membrane fractions of HEK 293 cells stably transfected with Swedish mutant βAPP695 (swAPP) were analyzed by combined immunoprecipitation/immunoblotting with antibody 6687 to the C-terminus of βAPP. Three βAPP CTFs were detected (C99 (=CTFβ), C83 (=CTFα), and the approximately 6 kDa CTFγ). The same βAPP CTFs including the approximately 6 kDa CTFγ were also observed by immunoblotting with antibody 6687 in mouse brain. (B) The γ-secretase inhibitor DAPT inhibits CTFγ production. HEK 293 cells stably transfected with swAPP were treated with the indicated concentrations of DAPT for 4 h. Upper and middle panel: Membrane fractions were prepared and analyzed for βAPP CTFs by combined immunoprecipitation/immunoblotting with antibody 6687. […] Lower panel: Conditioned media were analyzed for secreted Aβ by combined immunoprecipitation/immunoblotting with antibodies 3926/6E10. […] (C) CTFγ production is dependent on biologically active presenilins. Membrane fractions from control cells expressing PS1 wt or cells stably expressing PS1 D385N were analyzed by combined immunoprecipitation/immunoblotting with antibody 6687. […]\nCTFγ was analyzed by combined immunoprecipitation/westernblotting with antibody 6687 of membrane extracts from stably transfected HEK 293 cells or from mouse brain. […]"}, "γ-secretase [2]": {"biological_target": "T1, γ-secretase", "assay": "Analysis of secreted Aβ in conditioned media of HEK 293 swAPP cells (immunoprecipitation/immunoblotting with antibodies 3926/6E10)", "format": "cell-based", "details": "DAPT for 4 h, FIG. 1B lower panel", "protocol": "FIG. 1: Identification of in vivo produced CTFγ in human cells and mouse brain according to Example 1: (A) Membrane fractions of HEK 293 cells stably transfected with Swedish mutant βAPP695 (swAPP) were analyzed by combined immunoprecipitation/immunoblotting with antibody 6687 to the C-terminus of βAPP. Three βAPP CTFs were detected (C99 (=CTFβ), C83 (=CTFα), and the approximately 6 kDa CTFγ). The same βAPP CTFs including the approximately 6 kDa CTFγ were also observed by immunoblotting with antibody 6687 in mouse brain. (B) The γ-secretase inhibitor DAPT inhibits CTFγ production. HEK 293 cells stably transfected with swAPP were treated with the indicated concentrations of DAPT for 4 h. Upper and middle panel: Membrane fractions were prepared and analyzed for βAPP CTFs by combined immunoprecipitation/immunoblotting with antibody 6687. […] Lower panel: Conditioned media were analyzed for secreted Aβ by combined immunoprecipitation/immunoblotting with antibodies 3926/6E10. […] Membrane fractions from control cells expressing PS1 wt or cells stably expressing PS1 D385N were analyzed by combined immunoprecipitation/immunoblotting with antibody 6687. […]\nAβ was immunoprecipitated from conditioned media collected for 4 h with antibody 3926, separated on Tris-Tricine gels and detected by immunoblotting with antibody 6E10 using a chemiluminescent detection system (Tropix, USA)."}, "γ-secretase [3]": {"system": "γ-secretase", "assay": "In vitro generation of CTFγ from membrane preparations of HEK 293 cells stably transfected with swAPP (immunoblotting with antibody 6687)", "format": "biochemical, human", "details": "250 nM DAPT", "protocol": "FIG. 2: In vitro generation of CTFγ according to Example 1: (A) Time dependent in vitro production of CTFγ. Membrane preparations were incubated at 37° C. for the indicated time points. The reaction mixtures were then separated in a soluble fraction (S100; lower panel) and a pellet fraction (P100; upper panel) by ultracentrifugation. These fractions were immunoblotted with antibody 6687. Note the selective accumulation of CTFγ in the S100(lower panel) fraction after 1-2 h incubation time. Very minor amounts of CTFγ were detected in the P100 fraction, which may be due to sticking of the highly hydrophobic CTFγ to membranes or to contamination of the P100 fraction with minor amounts of soluble proteins. (B) Two independent γ-secretase inhibitors (DAPT and “Compound 1”) inhibit the in vitro production of CTFγ. Membrane preparations were incubated with (+) or without (−) 250 nM DAPT (left panel) or 50 μM CM256 (right panel). The S100 fractions of the reaction mixtures were immunoblotted with antibody 6687. […]\nCTFγ was generated in vitro from membrane preparations of HEK 293 cells stably transfected with swAPP following previously described procedures (McLendon et al., 2000; Pinnix et al., 2001). […] Following SDS-PAGE on 10-20% Tris-Tricine gels (Invitrogen) samples were analyzed for CTFγ by immunoblotting with antibody 6687."}}, "note": "“Also recorded” adds a separate entry of the source."}
{"compound": "C[C@H](NC(=O)Cc1cc(F)cc(F)c1)C(=O)N[C@H](C(=O)OC(C)(C)C)c1ccccc1", "note": "[DAPT, N-[N-(3,5-difluorophenacetyl)-L-alanyl]-S-phenylglycin t-butyl ester]", "values": [{"measurement": "CTFγ generation", "setting": "γ-secretase [1]; FIG. 1B middle panel", "value": "significant block of CTFγ generation; also recorded: dose dependent inhibition of CTFγ generation"}, {"measurement": "CTFβ and CTFα levels", "setting": "γ-secretase [1]; FIG. 1B upper panel", "value": "build up of CTFβ and CTFα; also recorded: increase of βAPP CTFβ and CTFα"}, {"measurement": "secreted Aβ generation", "setting": "γ-secretase [2]", "value": "dose dependent inhibition; also recorded: severely reduced Aβ production"}, {"measurement": "in vitro CTFγ generation", "setting": "γ-secretase [3]; membrane preparations at 37° C., S100 fraction, FIG. 2B left panel", "value": "significantly reduce CTFγ generation; also recorded: efficiently reduced in vitro generation of CTFγ"}, {"measurement": "remaining in vitro CTFγ production", "setting": "γ-secretase [3]; membranes from cells expressing the inactive PS1 D385N mutation, FIG. 2D", "value": "reduces the remaining in vitro CTFγ production; also recorded: further reduced"}]}
